Measured values as given in US20250042880A1 (UNIVERSITY OF KENTUCKY RESEARCH FOUNDATION, priority 2021, published 2025).
“Also recorded” adds a separate entry of the source.

Key:
Pt2377 cells = test: Cell proliferation inhibition assay, Pt2377; assay type: cell-based
Method: Cell proliferation inhibition assay-Cell proliferation inhibition assay was performed as previously reported (48). All compounds to be tested were dissolved at 10 mM in DMSO. The cells were seeded into 12-well plates at a density of 40,000 cells per well in 1 mL of culture medium and were cultured overnight at 37° C. Either 1 μL of the compounds or the vehicle control (DMSO) was added to the cells. After 5 days, the medium was removed, and 200 μL of 0.25% trypsin was added. The cells were resuspended in 800 μL phosphate-buffered saline (PBS) and counted with Vi-CELL XR 2.03 (Beckman Coulter, Inc. USA). The ratio R of the number of viable cells in the compound-treated group to the number of viable cells in the DMSO-treated group was called relative growth rate, and the growth inhibition was calculated as (1−R)*100.

[1] = test system: A2780 ovarian cancer cells; details: cited from earlier work
OVCAR-3 cells = details: growth inhibition; cited from earlier work
[2] = test system: AMPK, mTOR and Wnt signaling; test: Western blotting of cell signaling pathways in CRC cells; assay type: cell-based
Method: Western blotting-Western blotting was carried out following previously reported procedures (50). Cells were incubated in 6-well plates and were treated with either DMSO or compounds dissolved in DMSO at indicated concentrations. Cells were lysed in 500 μl of lysis buffer: 50 mM HEPES, 100 mM NaCl, 2 mM EDTA, 1% (v/v) glycerol, 50 mM NaF, 1 mM Na3VO4, 1% (v/v) Triton X-100, with protease inhibitors (Sigma, P8340). The cell lysates were centrifuged (18,000×g, 10 min) and then 6× protein loading buffer was added to the suppernatants. The samples were boiled for 3 min and analyzed by standard Western blotting methods with the indicated antibodies.
Western blotting was performed as previously reported procedures (41). Cells were split into 6-well plates and incubated for 24 hours. Either DMSO or compounds dissolved in DMSO at indicated concentrations were added to each well for another 24 hours. Cells were lysed in 500 μL of lysis buffer containing 50 mmol/L HEPES, 100 mmol/L NaCl, 2 mmol/L EDTA, 1% (v/v) glycerol, 50 mmol/L NaF, 1 mmol/L Na3VO4, 1% (v/v) Triton X-100, and protease inhibitors (Sigma, P8340). Cell lysates were centrifuged for 10 minutes (18,000×g), and the supernatants were mixed with 6×protein loading buffer and boiled for 3 minutes. The samples were analyzed by standard Western blotting methods using the appropriate antibodies.

Structure (SMILES) | inhibition of proliferation of Pt2377 cells (Pt2377 cells) | sensitivity of A2780 ovarian cancer cells [1] | IC50 (OVCAR-3 cells) [nM] | effects on AMPK (pAMPK, pACC), mTOR (p70S6K, pS6) and Wnt (Axin2, c-Myc) signaling ([2]; 3 μM alone, LS174T cells, 24 hours) | AMPK phosphorylation (activation) ([2]; 3 μM, LS174T CRC cells)
Cc1c(NC(=O)c2cc(C(N)=O)nc3cc(F)ccc23)c(C(F)(F)F)nn1Cc1ccc(C#N)cc1 [BAY-876, N^4-[1-(4-cyanobenzyl)-5-methyl-3-(trifluoromethyl)-1H-pyrazol-4-yl]-7-fluoroquinoline-2,4-dicarboxamide] | inhibited the proliferation of these cell lines at nanomolar concentrations | resistant | 60 |  | 
O=c1c(-c2ccc(Cl)c(Cl)c2)coc2cc(OCCN3CCN(CCO)CC3)ccc12 [DBI-6, 3-(3,4-dichlorophenyl)-7-(2-(4-(2-hydroxyethyl)piperazin-1-yl)ethoxy)-4H-chromen-4-one] |  |  |  | activated AMPK signaling (pAMPK and pACC) and inhibited mTOR signaling (p70S6K and pS6); also recorded: more active than DBI-1 | best activity in AMPK activation
